Test results: patent US12257287B2, “Glucagon-derived peptide and use thereof” (Tianjin Institute of Pharmaceutical Research Co., Ltd., priority 2018, dated 2025)
Values after ≈ are worked out from the molar mass of the structure shown. Marks after values point to notes of the source that are not given here. Numbered stars: 1 amine (or outer) side, 2 acyl side, 3 side chain; on linkers, the order of the positions; unused ones are H or OH. Square brackets hold non-standard residues; d marks the D form. Side chains are listed from the residue outwards. Peptide text beside a SMILES is read from it. * marks the point of attachment. C20 diacid = O=C(O)CCCCCCCCCCCCCCCCCCC(=O)*; γGlu = O=C(O)[C@H](CCC(=O)[*:2])N[*:1]; AEEA = NCCOCCOCC(=O)O; Aib = CC(C)(N)C(=O)O

Columns and labels:
[1] = Accelerated chemical stability in injection solvent system (HPLC-UV); assay type: physicochemical; details: 14 days, phosphate buffer pH 7.3 with Tween 80 and phenol, main peak area vs day 0
Method in brief: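 Compound dissolved in 10 mM pH 8.5 sodium hydrogen phosphate buffer, adjusted to pH 7.3, with Tween 80 and phenol added. Solutions stored 14 days at 10 °C and 37 °C; HPLC-UV main-peak area by normalisation compared against day 0.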

[2] = Glucose tolerance test in glucose-loaded DIO mice; assay type: in vivo
Method in brief: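 DIO mice fasted 16 h received compound subcutaneously; 1 h later, glucose 1 g/kg was given intraperitoneally. Blood glucose measured at 0.5, 1 and 1.5 h; AUC compared with model control group to give blood glucose inhibition rate (%).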

[3] = molecular target: T1, human GLP-1 receptor (Homo sapiens, UniProt P43220); assay: GLP-1 receptor mediated cAMP production in vitro; assay type: cell-based; details: cells transfected with human GLP-1 receptor, 20 min at 37° C., read-out: GLP-1R (nM EC50)
T1 construct: expressed in transfected cells; host or cells: Chinese guinea pig lung cells [sic]
T1 sequence (P43220 24-463): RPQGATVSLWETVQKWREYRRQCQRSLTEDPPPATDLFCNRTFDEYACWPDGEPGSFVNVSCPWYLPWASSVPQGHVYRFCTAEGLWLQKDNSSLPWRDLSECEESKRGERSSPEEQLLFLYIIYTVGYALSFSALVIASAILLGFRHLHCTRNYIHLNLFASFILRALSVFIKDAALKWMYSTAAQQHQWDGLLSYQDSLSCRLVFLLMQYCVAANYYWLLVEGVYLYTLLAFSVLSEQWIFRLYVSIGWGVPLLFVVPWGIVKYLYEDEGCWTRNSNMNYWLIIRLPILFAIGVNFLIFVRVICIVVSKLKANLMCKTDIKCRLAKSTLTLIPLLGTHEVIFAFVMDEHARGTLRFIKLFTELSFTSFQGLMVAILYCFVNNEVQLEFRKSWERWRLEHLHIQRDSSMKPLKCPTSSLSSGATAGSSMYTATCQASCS
From the text: (§1) The medium was removed, the cells were lysed, and cAMP values were detected referring to the detection method described for the assay kit.

[4] = Effect on body weight of DIO mice after 14 days' administration; assay type: in vivo, C57BL/6J mice; details: DIO mice
Method in brief: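 C57BL/6J mice on H10060 high-fat diet for 34 weeks (DIO; 45.0–52.0 g), 5 per group, dosed subcutaneously once daily for 14 days; controls received saline. Body weight change (%) = (initial − last-day weight)/initial weight; positive values mean loss.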

[5] = molecular target: T2, GC receptor (Homo sapiens, UniProt P47871); assay: GC receptor mediated cAMP production in vitro (HEK293 cells transfected with GC receptor); assay type: cell-based; details: 20 min at 37° C., read-out: GCGR (nM EC50)
T2 construct: expressed in transfected cells; host or cells: HEK293 cells
T2 sequence (P47871 26-477): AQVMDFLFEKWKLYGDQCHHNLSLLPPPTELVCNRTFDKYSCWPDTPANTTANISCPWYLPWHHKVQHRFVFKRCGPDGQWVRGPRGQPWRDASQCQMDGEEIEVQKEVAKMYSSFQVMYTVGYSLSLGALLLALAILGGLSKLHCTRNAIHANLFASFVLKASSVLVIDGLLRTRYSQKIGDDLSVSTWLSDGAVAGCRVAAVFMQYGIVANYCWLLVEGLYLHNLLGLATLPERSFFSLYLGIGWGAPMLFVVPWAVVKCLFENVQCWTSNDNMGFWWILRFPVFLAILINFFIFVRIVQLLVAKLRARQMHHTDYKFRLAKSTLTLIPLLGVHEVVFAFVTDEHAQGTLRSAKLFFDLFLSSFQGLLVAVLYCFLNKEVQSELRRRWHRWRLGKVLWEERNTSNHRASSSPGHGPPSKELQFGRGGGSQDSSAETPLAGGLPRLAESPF
From the text: as §1

[6] = physchem; assay type: physicochemical
[7] = Short-term administration: food intake and body weight in DIO mice; assay type: in vivo; details: 30 nmol/kg once every 24 h, twice, − decrease; for Rate of change in food intake (%): at 48 hours vs day before administration; for Body weight change: at 48 hours
Method in brief: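 DIO mice (mean body weight 52.5 g), 5 per group, dosed at 30 nmol/kg every 24 h for two doses, in 10 mM PBS pH 7.4; controls received solvent. Food intake and body weight at 48 h expressed as change rate versus the day before dosing.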

[8] = pH 7.5, Solubility, pH 7.5, 10 mM phosphate buffer
[9] = pH 7.5, Solubility, pH 7.5, 20 mM phosphate buffer
[10] = pH 8, Solubility, pH 8.0, 10 mM phosphate buffer
[11] = pH 8, Solubility, pH 8.0, 20 mM phosphate buffer
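Wherever Solubility is given: compound added at 2 mg per mL of phosphate buffer, with the dissolved amount determined in the supernatant.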

SMILES	Change in purity % (10° C.) [1] [%]	Change in purity % (37° C.) [1] [%]	AUC of blood glucose, Table 4 ([2]; DIO mice fasted 16 h, glucose 1 g/kg i.p. 1 h after s.c. administration, 0.5, 1, 1.5 h) [mmol·h/L]	AUC reduction rate (%), Table 4 ([2]; blood glucose inhibition rate compared with model control group, DIO mice, glucose 1 g/kg i.p.)	EC50 [3] [nM]	body weight change rate, Table 3 ([4]; subcutaneous injection every day for 14 days, (initial−last)/initial, positive values indicate a decrease) [%]	EC50 [5] [nM]	solubility [6, 8] [µg/mL]	solubility [6, 9] [µg/mL]	solubility [6, 10] [µg/mL]	solubility [6, 11] [µg/mL]	Rate of change in food intake (%) [7] [%]	Body weight change [7] [g]	glucose tolerance / blood glucose lowering (in words) ([2]; DIO mice, conclusions on Tables 4 and 6)	body weight reduction (in words) ([4]; 14 days, conclusions on Tables 3 and 5)
CCCCCCCCCCCCCCCC(=O)N[C@@H](CCC(=O)N[C@@H](CCC(=O)NCCCC[C@H](NC(=O)[C@H](CC(=O)O)NC(=O)[C@H](CO)NC(=O)[C@@H](NC(=O)[C@H](Cc1ccccc1)NC(=O)[C@@H](NC(=O)CNC(=O)[C@H](CCC(N)=O)NC(=O)C(C)(C)NC(=O)[C@@H](N)Cc1c[nH]cn1)[C@@H](C)O)[C@@H](C)O)C(=O)N[C@@H](CO)C(=O)N[C@@H](CCCCN)C(=O)N[C@@H](Cc1ccc(O)cc1)C(=O)N[C@@H](CC(C)C)C(=O)N[C@@H](CCC(=O)O)C(=O)N[C@@H](CCC(=O)O)C(=O)N[C@@H](CCCNC(=N)N)C(=O)N[C@@H](C)C(=O)N[C@@H](C)C(=O)N[C@@H](CCCCN)C(=O)N[C@@H](CCC(=O)O)C(=O)N[C@@H](Cc1ccccc1)C(=O)N[C@H](C(=O)N[C@@H](C)C(=O)N[C@@H](Cc1c[nH]c2ccccc12)C(=O)N[C@@H](CC(C)C)C(=O)N[C@@H](CCC(=O)O)C(=O)N[C@@H](C)C(=O)NCC(=O)NCC(=O)N1CCC[C@H]1C(=O)N[C@@H](CO)C(=O)N[C@@H](CO)C(=O)NCC(N)=O)C(C)C)C(=O)O)C(=O)O [Compound 4] (HELM PEPTIDE1{H.[Aib].Q.G.T.F.T.S.D.K.S.K.Y.L.E.E.R.A.A.K.E.F.V.A.W.L.E.A.G.G.P.S.S.G.[am]}|PEPTIDE2{[CCCCCCCCCCCCCCCC(=O)[*:2]].[gGlu].[gGlu]}$PEPTIDE1,PEPTIDE2,10:R3-3:R2$$$V2.0; N-terminus assumed)	−0.9	−3.7	9.02 ± 1.74	57.4** %	0.051	26.0	0.024	1820 (≈ 437 µM)	1220 (≈ 293 µM)	> 2000	> 2000	−42	-1.5	–	–
CC[C@H](C)[C@H](NC(=O)[C@H](Cc1ccccc1)NC(=O)[C@H](CCC(=O)O)NC(=O)[C@H](CCCCN)NC(=O)[C@H](C)NC(=O)[C@H](C)NC(=O)[C@H](CCCNC(=N)N)NC(=O)[C@H](CCC(=O)O)NC(=O)[C@H](CCC(=O)O)NC(=O)[C@H](CC(C)C)NC(=O)[C@H](Cc1ccc(O)cc1)NC(=O)[C@H](CCCCN)NC(=O)[C@H](CO)NC(=O)[C@H](CCCCNC(=O)COCCOCCNC(=O)COCCOCCNC(=O)CC[C@H](NC(=O)CCCCCCCCCCCCCCCCCCC(=O)O)C(=O)O)NC(=O)[C@H](CC(=O)O)NC(=O)[C@H](CO)NC(=O)[C@@H](NC(=O)[C@H](Cc1ccccc1)NC(=O)[C@@H](NC(=O)CNC(=O)[C@H](CCC(N)=O)NC(=O)C(C)(C)NC(=O)[C@@H](N)Cc1c[nH]cn1)[C@@H](C)O)[C@@H](C)O)C(=O)N[C@@H](C)C(=O)N[C@@H](Cc1c[nH]c2ccccc12)C(=O)N[C@@H](CC(C)C)C(=O)N[C@@H](CCC(=O)O)C(=O)N[C@@H](C)C(=O)NCC(=O)NCC(=O)N1CCC[C@H]1C(=O)N[C@@H](CO)C(=O)N[C@@H](CO)C(=O)NCC(N)=O [Compound 35] (H-H[Aib]QGTFTSDK([AEEA-AEEA-γGlu-C20 diacid])SKYLEERAAKEFIAWLEAGGPSSG-NH2; N-terminus assumed)	−0.6	−3.1	–	–	0.044	–	0.036	1840 (≈ 416 µM)	1170 (≈ 264 µM)	> 2000	> 2000	−59	-3.2	significantly improved glucose tolerance	significantly reduced body weight
